Source: ChEMBL document CHEMBL4834458, “Diterpenoids with Aromatase Inhibitory Activity from the Rhizomes of Kaempferia elegans” (J Nat Prod, 2021)

Key:
[1] = biological target: T1, Aromatase (Homo sapiens, UniProt P11511); assay: Inhibition of aromatase (unknown origin) at 12.5 uM relative to control
T1 sequence (P11511 whole entry): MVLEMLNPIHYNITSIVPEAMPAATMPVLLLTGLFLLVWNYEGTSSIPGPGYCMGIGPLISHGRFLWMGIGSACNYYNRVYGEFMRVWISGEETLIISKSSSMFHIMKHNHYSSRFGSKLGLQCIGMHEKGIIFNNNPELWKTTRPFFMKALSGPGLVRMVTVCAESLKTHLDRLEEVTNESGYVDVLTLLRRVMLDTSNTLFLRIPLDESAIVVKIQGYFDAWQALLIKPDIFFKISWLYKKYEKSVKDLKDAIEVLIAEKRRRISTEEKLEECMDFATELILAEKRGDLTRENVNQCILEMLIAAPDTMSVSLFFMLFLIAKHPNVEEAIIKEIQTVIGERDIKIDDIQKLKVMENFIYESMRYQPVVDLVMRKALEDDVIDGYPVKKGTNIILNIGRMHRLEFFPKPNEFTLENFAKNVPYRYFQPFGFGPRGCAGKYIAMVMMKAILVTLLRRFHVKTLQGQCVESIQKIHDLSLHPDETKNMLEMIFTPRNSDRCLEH

[2] = biological target: T1, Aromatase; assay: Inhibition of aromatase (unknown origin)
[3] = tested on: HeLa; assay: Cytotoxicity against human HeLa cells assessed as reduction in cell viability incubated for 48 hrs by MTT assay; type: functional, cell-based
[4] = tested on: A549; assay: Cytotoxicity against human A549 cells assessed as reduction in cell viability incubated for 48 hrs by MTT assay; type: functional, cell-based; conditions: A549, 48 h
[5] = tested on: MRC5; assay: Cytotoxicity against human MRC5 cells assessed as reduction in cell viability incubated for 48 hrs by MTT assay; type: cell-based; conditions: MRC5, 48 h
[6] = tested on: K562; assay: Cytotoxicity against human K562 cells assessed as reduction in cell viability incubated for 48 hrs by MTT assay; type: functional, cell-based; conditions: K562, 48 h
[7] = Cytotoxicity against human NCI-H69AR cells assessed as reduction in cell viability incubated for 48 hrs by MTT assay; type: functional, cell-based
[8] = tested on: T47D; assay: Cytotoxicity against human T47D cells assessed as reduction in cell viability incubated for 48 hrs by MTT assay; type: functional, cell-based
[9] = tested on: HepG2; assay: Cytotoxicity against human HepG2 cells assessed as reduction in cell viability incubated for 48 hrs by MTT assay; type: functional, cell-based; conditions: HepG2, 48 h
[10] = tested on: HuCCT-1; assay: Cytotoxicity against human HuCC-A1 cells assessed as reduction in cell viability incubated for 48 hrs by MTT assay; type: functional, cell-based; conditions: HuCCT-1, 48 h
[11] = tested on: MDA-MB-231; assay: Cytotoxicity against human MDA-MB-231 cells assessed as reduction in cell viability incubated for 48 hrs by MTT assay; type: functional, cell-based; conditions: MDA-MB-231, 48 h

| inhibition at 12.5 µM [1] [%] | Structure (SMILES) | IC50 [2] [µM] | other results |
| --- | --- | --- | --- |
| 16 | CC(C)[C@@]1(O)CC[C@H]2C(CC[C@H]3C(C)(C)CCC[C@]23C)[C@H]1O (stereo partly specified) | – | – |
| 15 | CC(C)[C@@]1(O)CC[C@H]2C(CC[C@H]3C(C)(C)CCC[C@]23C)[C@@H]1O (stereo partly specified) | – | – |
| 42 | CC(C)C1=CC(=O)C2=C(CC[C@H]3C(C)(C)CCC[C@]23C)C1=O | – | – |
| 30 | CC(C)c1ccc2c(c1)[C@H](O)C[C@H]1C(C)(C)CCC[C@]21C | – | – |
| 26 | CC(C)[C@@]12CC3=C([C@@H](CO1)O2)[C@@]1(C)CCCC(C)(C)[C@@H]1CC3 | – | – |

Second part, the molecule before the results:

| Structure (SMILES) | inhibition at 12.5 µM [1] [%] | IC50 [2] [µM] | other results |
| --- | --- | --- | --- |
| C=C[C@@]1(C)CC(=O)C2=C(CC[C@H]3C(C)(C)CCC[C@]23C)C1 | – | 7.9 | – |
| C[C@@H]1O[C@]2(C(C)(C)O)C=C3CC[C@H]4C(C)(C)CCC[C@]4(C)[C@@]31OO2 | – | 10.7 | – |
| C=C[C@]1(C)C=C2[C@H](O)C[C@H]3C(C)(C)CCC[C@]3(C)[C@H]2CC1 | 31 | – | – |
| CC(C)c1cc(O)c2c(c1)[C@H](O)C[C@H]1C(C)(C)CCC[C@]21C | – | 7.2 | – |
| C[C@@H]1OC(=O)C=C2[C@H](O)C[C@H]3C(C)(C)CCC[C@]3(C)[C@H]21 | 14 | – | – |
| C[C@@H]1OC(=O)C=C2[C@H](O)C[C@H]3C(C)(C)CCC[C@]3(C)[C@]21O | 25 | – | – |
| CC(C)C1=CC2=CC[C@H]3C(C)(C)CCC[C@]3(C)[C@H]2[C@H](O)C1 | 36 | – | – |
| C[C@H]1C[C@]2(O)O[C@@]1(C)C=C1CC[C@H]3C(C)(C)CCC[C@]3(C)[C@H]12 | – | 11.8 | – |
| C=C[C@]1(C)C=C2CC[C@H]3C(C)(C)CCC[C@]3(C)[C@H]2CC1 | – | 10.4 | – |
| CC(C)[C@]1(O)C=C2[C@H](O)C[C@H]3C(C)(C)CCC[C@]3(C)[C@H]2C[C@H]1O | 21 | – | – |
| CC(C)c1cc(O)c2c(c1)CC[C@H]1C(C)(C)CCC[C@]21C | – | 3.7 | IC50 [3]: 27.2 µM; IC50 [4]: 27.2 µM; IC50 [5]: 82.1 µM; IC50 [6]: 27.2 µM; IC50 [7]: 27.2 µM; IC50 [8]: 129 µM; IC50 [9]: 27.2 µM; IC50 [10]: 27.2 µM; IC50 [11]: 27.2 µM |
| CC(C)c1ccc2c(c1)CC[C@H]1C(C)(C)CCC[C@]21C | 44 | – | – |
